Common to all, as to type: in vivo, human
The subject of data set [1] is participants with NT2. Briefly: ESS total score, Phase 2 NT2 trial. The conditions noted are these: not statistically significant (p>0.05). An excerpt:
In some aspects of the methods described herein, the subject experiences a lower Epworth Sleepiness Scale (ESS) total score after a treatment period compared to an untreated subject. The ESS is a subjective, self-administered scale that has been validated and used extensively as a key endpoint in studies in patients with narcolepsy to measure excessive daytime sleepiness (EDS). The ESS provides individuals with 8 different situations of daily life and asks them how likely they are to fall asleep in those situations (scored 0 to 3) and to try to imagine their likelihood of dozing even if they have not actually been in the identical situation; the scores are summed to give an overall score of 0 to 24. Higher scores indicate stronger subjective daytime sleepiness, and scores below 10 are considered to be within the reference range.
Randomization was stratified by region. Starting on the morning of Day 1, the study drug was administered at approximately the same time each day for 8 weeks.
In this study, the interventions includes: • Dose Regimen 1:2 mg followed by 2 mg approximately 3 hours apart. • Dose Regimen 2:2 mg followed by 5 mg approximately 3 hours apart or 7 mg once daily. • Other products required for the study: placebo.
Eligible participants were age 18-70 years, with Epworth Sleepiness Scale (ESS) score>12 and no other current EDS-related medical conditions. […]

For data set [2], the system named is participants with NT1. The data set can be described thus: Psychomotor vigilance test (PVT), sustained attention, Phase 2 NT1 trial. An excerpt:
The psychomotor vigilance test (PVT) is validated as a clinical outcome assessment of the ability to sustain attention. The PVT is a simple reaction performance task that aims to measure sustained attention with no learning effects over repeated administration. Differences between healthy controls and patients with narcolepsy have been found on PVT performance for reaction time, accuracy, and other measures. The PVT is sensitive to the effects of total sleep loss, partial sleep restriction, naps, and circadian variation in the healthy population. The duration of test is 10 minutes.
Outcomes of this study included a performance-based test of attention, the Psychomotor Vigilance Task (PVT; administered 1 and 7 hours post first dose, assessed at baseline and weeks 4 and 8) and two assessments of EDS: the Maintenance of Wakefulness Test (MWT; administered 2, 4, 6, and 8 hours post first dose, assessed over 4 sessions) and the Epworth Sleepiness Scale (ESS; using a 7-day recall period, assessed at baseline and weeks 2, 4, and 8). At baseline, associations between attention (as measured by number of PVT lapses), and objective (MWT) and subjective (ESS) measures of EDS were computed. For PVT and MWT, covariation in change throughout the day at end of study was investigated. The effect of different Compound A doses on wakefulness and attention were compared for each outcome. […]

In data set [3] the test system is participants with NT1. Briefly: Safety and tolerability (TEAEs), Phase 2 NT1 trial. An excerpt: Standard safety endpoints (e,g., treatment […] adverse events (TEAEs), physical examination findings, vital signs, 12-lead ECG measures, clinical laboratory results) for early clinical investigation were included. Further, because cardiovascular effects have been noted in nonclinical models with Compound A and OX2R agonists in general, and these effects are thought to be on-target effects, close monitoring of cardiovascular parameters, including time-matched BP measurements before and after dosing to detect any changes and potential tolerance in BP after the administration of repeat doses to participants with NT1 were included. Ambulatory blood pressure monitoring (ABPM) was also obtained to assess BP in the outpatient setting in a rigorous manner.
In addition, because liver function test (LFT) elevation cases have been observed in another OX2R agonist with structural similarity, LFTs (ALT, AST, GGT, and total bilirubin) were closely monitored.
The following doses were studied: • Compound A Dose Regimen 1:0.5 mg twice daily approximately 3 hours apart. • Compound A Dose Regimen 2:2 mg twice daily approximately 3 hours apart. • Compound A Dose Regimen 3:2 mg followed by 5 mg approximately 3 hours apart. • Compound A Dose Regimen 4:7 mg once daily (QD). • Other products required for the study: Matching placebo.
Endpoints included change from baseline to Week 8 in mean sleep onset latency on the Maintenance of Wakefulness Test (SOL-MWT; primary endpoint), ESS total score, weekly cataplexy rate (WCR), and occurrence of treatment-emergent adverse events (TEAEs).

Setting [4] is: Compound A-treated participants.

The structures appear in SMILES notation.

Consider `CCS(=O)(=O)N[C@@H]1[C@H](Cc2cccc(-c3cc(F)cc(F)c3)c2F)N(C(=O)C(C)(C)O)CC1(F)F` [Compound A, N-{(2S,3R)-4,4-difluoro-1-(2-hydroxy-2-methylpropanoyl)-2-[(2,3′,5′-trifluoro[1,1′-biphenyl]-3-yl)methyl]pyrrolidin-3-yl}ethanesulfonamide], for which, in data set [1] (2 mg/2 mg), the “ESS total score change from baseline to Week 8 versus placebo” value is listed as −0.32 points. For the same compound, in data set [1] (2/5 mg), the “ESS total score change from baseline to Week 8 versus placebo” value was −3.06 points. In addition, the “PVT lapses, least squares mean differences from placebo” value in data set [2] (all Compound A doses, 1 hour and 7 hours post-first dose (p<0.05)) is listed as “significant”. For the same compound, the “Attention (PVT lapses)” value in data set [2] (week 8, all doses (all p<0.05)) was “improved attention across all doses”. In data set [3] (setting [4]), the “Adverse events of mild to moderate insomnia, participants” value is listed as 48% and the “Time to resolution of most insomnia adverse events” value was ≤ 1 week. In addition, in data set [3] (Phase 2), the “Most common TEAEs” value was “urinary urgency/frequency and insomnia”. Further, in data set [3] (Phase 2, 8 weeks), the “Hepatotoxicity or visual disturbances” value is given as “No cases of hepatotoxicity or visual disturbances were reported” and the Tolerability entry is given as “generally well tolerated”. Moreover, the “Occurrence of TEAEs” value in data set [3] (all Compound A doses (70/90 patients), 8 weeks) turned out to be 77.8%. Further, in data set [3] (during the study), the “Treatment-related serious TEAEs or discontinuations due to TEAEs” value is “No treatment-related serious TEAEs or discontinuations due to TEAEs occurred”.
